These are literature values, as cited in patent publication US20110319370A1, “Combination Hormone Therapy for the Eye” (DUQUESNE UNIVERSITY OF THE, priority 2010, published 2011).

Data set [1] has as its system newborn rats treated with buthionine sulfoximine (BSO). As to conditions: cataracts develop by age 16 days, reduced from 100% without melatonin.

Converted amounts (≈) assume the structure as drawn.

Consider `COc1ccc2[nH]cc(CCNC(C)=O)c2c1` [Melatonin], for which the cataract incidence in data set [1] is listed as 6.2%. For the same molecule, the “solubility in aqueous media” value (aqueous media) was 2.4 mg/mL (≈ 10.3 mM). For the same molecule, the “solubility in organic solvents” value (organic solvents) was 140.5 mg/mL (≈ 605 mM).
